Experimental findings from US8198285B2, “Pyrazine derivatives” (Astrazeneca AB, priority 2010, dated 2012) are described below.

Structures are written as SMILES. Structures can show the parent of a compound that is named as a salt.

Assay [1] has as its system human adipose-derived stem cells (hADSC). Nature of the assay: Osteogenic differentiation and assessment of mineralisation in vitro (Alizarin Red S). The settings on record: 300 nM; 24 days of cell culture; relative to vehicle control (0.2% DMSO). Type of assay: cell-based. The procedure: (§1) For in vitro osteogenesis, human adipose-derived stem cells (hADSC) (Invitrogen, UK; catalogue number R7788-115) were seeded into 12-well plates at a density of 5000 cells/cm^2 and were cultured in a basal media of phenol red-free Dulbecco's Modified Eagles Medium (DMEM; Sigma-Aldrich, UK; catalogue number D1145) supplemented with 5% fetal bovine serum (FBS, Gibco, UK; catalogue number 10270) and 2 mM GlutaMax® (Gibco; catalogue number 35050). […] The formation of mineralized bone nodules was assessed during the time-course using Alizarin Red S staining. […] The amount of mineralisation was quantified through the extraction of the Alizarin Red S stain from bone nodules using a cetylpyridinium chloride extraction method, previously described (Gregory et al., Analytical Biochemistry, 2004, 329: 77-84; Hwang et al., Stem Cells and Development 17: 963-970, 2008). […] Following incubation, 200 μl aliquots were transferred to 96-well format and the absorbance at 550 nm was determined using a microplate spectrophotometer (SpectraMax Plus, Molecular Devices, USA). Data were expressed as mean absorbance at 550 nm±Standard error of mean (SEM). […] Data are shown as mean absorbance at 550 nm and analysed using one-way ANOVA followed by Tukey's multiple comparison post hoc test: n=9; ***, P<0.001. […]

The target of assay [2] is CHK2 (checkpoint kinase 2) (Homo sapiens, UniProt O96017). Put plainly: Inhibitory activity against CHK2. Type of assay: biochemical.
Sequence of CHK2 (checkpoint kinase 2) (O96017 whole entry, species assumed): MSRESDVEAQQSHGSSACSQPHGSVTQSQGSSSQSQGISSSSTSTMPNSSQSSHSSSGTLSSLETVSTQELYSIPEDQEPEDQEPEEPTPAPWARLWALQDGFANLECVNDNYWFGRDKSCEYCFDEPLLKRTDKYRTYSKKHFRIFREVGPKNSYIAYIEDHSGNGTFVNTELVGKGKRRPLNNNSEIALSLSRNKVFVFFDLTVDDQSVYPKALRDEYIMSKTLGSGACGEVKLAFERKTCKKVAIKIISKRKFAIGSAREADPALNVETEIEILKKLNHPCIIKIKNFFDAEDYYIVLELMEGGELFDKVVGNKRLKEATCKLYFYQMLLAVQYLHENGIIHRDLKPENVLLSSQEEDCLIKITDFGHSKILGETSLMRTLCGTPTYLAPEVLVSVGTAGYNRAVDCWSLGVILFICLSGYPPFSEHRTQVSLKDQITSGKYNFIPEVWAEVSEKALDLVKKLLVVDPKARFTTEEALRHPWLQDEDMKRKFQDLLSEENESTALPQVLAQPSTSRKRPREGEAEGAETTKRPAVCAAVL
Assay [3] relates to osteoclast-derived tartrate-resistant acid phosphatase form 5b (TRAcP-5b). Put plainly: Bone biomarker evaluation: serum TRAcP-5b assay. The format is in vivo, rat. As to conditions: oral once a day, 7 consecutive days, female CRL:CD rats. The procedure: as §1
The test system of assay [4] is Female Sprague Dawley rats. Nature of the assay: Increased bone formation in rats: femur histopathology. As to conditions: rat, oral. Type of assay: in vivo. The protocol:
For in vitro osteogenesis, human adipose-derived stem cells (hADSC) (Invitrogen, UK; catalogue number R7788-115) were seeded into 12-well plates at a density of 5000 cells/cm^2 and were cultured in a basal media of phenol red-free Dulbecco's Modified Eagles Medium (DMEM; Sigma-Aldrich, UK; catalogue number D1145) supplemented with 5% fetal bovine serum (FBS, Gibco, UK; catalogue number 10270) and 2 mM GlutaMax® (Gibco; catalogue number 35050). […] In osteogenic positive control wells, basal media was replaced with a differentiation media; phenol red-free DMEM supplemented with 5% FBS, 2 mM GlutaMax®, 50 μg/ml L-ascorbic acid (Sigma-Aldrich; Catalogue no. A8960), 5 mM β-glycerophosphate (Calbiochem, UK; catalogue number 35675), and 10 nM dexamethasone (Sigma-Aldrich; catalogue number D4902). The cultures were incubated at 37° C. in 5% CO2 with media and compound was replaced every 3-4 days over a time-course of 24 days. The formation of mineralized bone nodules was assessed during the time-course using Alizarin Red S staining. At numerous times throughout the time-course, cells were fixed with 4% paraformaldehyde (Sigma-Aldrich; catalogue number P6148) for 20 min, followed by three washes with phosphate buffered saline (PBS), without calcium chloride and magnesium chloride, (Sigma-Aldrich; catalogue number D8537), before being stained with 40 mM Alizarin Red S (Sigma-Aldrich; catalogue number A5533) (pH4.2) for 20 min at room temperature. Plates were placed on a rocking platform (50 rpm) during staining After staining, cells were washed three times with PBS, and three times with water. Cells were imaged using a Leica M165FC stereomicroscope and associated Leica Application Suite imaging software (Leica Microsystems, UK). The amount of mineralisation was quantified through the extraction of the Alizarin Red S stain from bone nodules using a cetylpyridinium chloride extraction method, previously described (Gregory et al., Analytical Biochemistry, 2004, 329: 77-84; Hwang et al., Stem Cells and Development 17: 963-970, 2008). Briefly, Alizarin Red S stain was extracted from bone nodules through the addition of 1 ml, to each well, of a cetylpyridium chloride buffer consisting of 10% cetylpyridium chloride (Sigma-Aldrich; catalogue number C0732) in 10 mM Na3PO4 (Sigma-Aldrich; catalogue number 342483) (pH7.0) and incubation for 1 h at 37° C. Following incubation, 200 μl aliquots were transferred to 96-well format and the absorbance at 550 nm was determined using a microplate spectrophotometer (SpectraMax Plus, Molecular Devices, USA). Data were expressed as mean absorbance at 550 nm±Standard error of mean (SEM). Differences between groups were examined for statistical significance using one-way analysis of variance (ANOVA) followed by Tukey's multiple comparison post hoc test. P<0.05 was considered significant. […] Experiments were performed in triplicate. […] Data are shown as mean absorbance at 550 nm and analysed using one-way ANOVA followed by Tukey's multiple comparison post hoc test: n=9; ***, P<0.001. […] Female Sprague Dawley rats (Charles River CRL:CD rats, Deal, Margate, UK) aged between 12 and 16 weeks (230-340 g) were dosed with either compound or vehicle with a 5 mL/kg volume administered by oral gavage using straight steel (75 mm, 16 gauge) oral gavage feeding needles (Vet-Tech Solutions Ltd, Congleton, UK) between 7 and 10 am each day. Compound or vehicle was dosed at various doses (including 2.5, 5, 15 or 50 mg/kg/day freebase doses equivalent to 3, 6, 18 and 59 mg/kg of tri-hydrochloride salt) once a day for seven to fourteen days. In some studies a serum sample was taken prior to treatment to measure baseline serum bone biomarkers following overnight fasting. Blood was sampled from the tail vein and serum prepared by adding the blood to serum gel blood collection tubes (Microvette 500 Z-gel, catalogue number 20.1344, Sarstedt, Leicester, UK) and centrifuging the tubes for at 13000 rpm for 5 min at 4° C. […]

On to `COCCCNCCCc1ccc(-c2cnc(N)c(C(=O)Nc3cccnc3)n2)cc1` [Example 1, 3-Amino-6-(4-{3-[(3-methoxypropyl)amino]propyl}phenyl)-N-pyridin-3-ylpyrazine-2-carboxamide tri-hydrochloride], for which, in assay [1], the “Alizarin red S staining of mineralised bone nodules” value is “significantly induced progenitor cell commitment and osteoblast differentiation”. In addition, the “Inhibitory activity against CHK2” value in assay [2] was “inhibitory activity”. Also, in assay [3], the “Serum TRAcP-5b levels (marker of bone resorption)” value is “reduction in serum TRAcP-5b levels”. Also, the “Histopathology, morphology in the femur” value in assay [4] (5 mg/kg, 7 or 14 days, vs vehicle) is “no differences in morphology in the femur”. Besides, in assay [4] (15 mg/kg, 14 days), the “Focal bone masses in the sub-chondral region” value is recorded as 2 out of 10; the “Histopathology, bone formation in femur” value was “evidence of bone formation in both the sub-chondral region and cortical region”. Besides, in assay [4] (50 mg/kg, 7 days), the “Histopathology, bone marrow” value is “histological evidence of bone marrow cell mobilization and differentiation”; the “Histopathology, cancellous bone compartment” value is on record as “evidence of increased bone within the cancellous bone compartment”. The “Histopathology, bone changes in femur” value in assay [4] (50 mg/kg, 14 days) is “broader range of bone changes suggestive of bone formation”. For the same molecule, in assay [4] (15 and 50 mg/kg, 7 days), the “Histopathology, osteoblast hypertrophy” value was “evidence of osteoblast hypertrophy”; the “Histopathology, osteoid and bone in femur” value is “dose related changes of increased osteoid and bone in both the sub-chondral region and in the cortical bone in the shaft”.
